The NIST ThermoML archive (doi:10.1016/j.tca.2016.02.005)
Numbers after ± are expanded uncertainties.

Key:
[1] = xn = mol fraction of the nth substance listed; conditions: 101.3 kPa, Liquid; for speed of sound: Frequency=3 MHz, Sing-around technique in a fixed-path interferometer; for mass density: Vibrating tube method
[2] = refractive index (Na D-line) (dimensionless); xn = mol fraction of the nth substance listed; conditions: 101.3 kPa, Liquid, Standard Abbe refractometry

COCCO [2-methoxyethan-1-ol] + CCn1cc[n+](C)c1.F[B-](F)(F)F
Conditions	mass density, [1] [kg/m3]	refractive index, [2]	speed of sound, [1] [m/s]
298.15 K, x2 = 0	960.9 ± 2	1.4003 ± 0.0004	1345.8 ± 1.5
298.15 K, x2 = 0.0515	993.6 ± 2	1.4031 ± 0.0004	1379.1 ± 1.6
298.15 K, x2 = 0.102	1022 ± 2	1.4052 ± 0.0004	1408.5 ± 1.6
298.15 K, x2 = 0.1502	1046.9 ± 2	1.4067 ± 0.0004	1433.7 ± 1.6
298.15 K, x2 = 0.21	1075 ± 2	1.408 ± 0.0004	1461.4 ± 1.6
298.15 K, x2 = 0.3051	1113.8 ± 2	1.4094 ± 0.0004	1498.3 ± 1.6
298.15 K, x2 = 0.3976	1145.5 ± 2	1.4101 ± 0.0004	1526.8 ± 1.6
298.15 K, x2 = 0.5036	1175.9 ± 2	1.4107 ± 0.0004	1552.1 ± 1.6
298.15 K, x2 = 0.6063	1200.7 ± 2	1.4111 ± 0.0004	1570.9 ± 1.6
298.15 K, x2 = 0.701	1220.6 ± 2	1.4115 ± 0.0004	1584.8 ± 1.6
298.15 K, x2 = 0.8024	1240.1 ± 2	1.4118 ± 0.0004	1597.7 ± 1.6
298.15 K, x2 = 0.8521	1249.4 ± 2	1.4117 ± 0.0004	1603.7 ± 1.6
298.15 K, x2 = 0.9	1258.3 ± 2	1.4115 ± 0.0004	1609.6 ± 1.6
298.15 K, x2 = 0.9502	1267.8 ± 2	1.4111 ± 0.0004	1616 ± 1.6
308.15 K, x2 = 0	951.7 ± 2	1.3961 ± 0.0004	1311.3 ± 1.5
308.15 K, x2 = 0.0515	984.6 ± 2	1.3991 ± 0.0004	1345.9 ± 1.6
308.15 K, x2 = 0.102	1013.2 ± 2	1.4014 ± 0.0004	1376.4 ± 1.6
308.15 K, x2 = 0.1502	1038.3 ± 2	1.4031 ± 0.0004	1402.7 ± 1.6
308.15 K, x2 = 0.21	1066.5 ± 2	1.4046 ± 0.0004	1431.6 ± 1.6
308.15 K, x2 = 0.3051	1105.5 ± 2	1.4061 ± 0.0004	1470 ± 1.6
308.15 K, x2 = 0.3976	1137.4 ± 2	1.407 ± 0.0004	1499.7 ± 1.6
308.15 K, x2 = 0.5036	1168 ± 2	1.4077 ± 0.0004	1526.1 ± 1.6
308.15 K, x2 = 0.6063	1192.9 ± 2	1.4082 ± 0.0004	1545.8 ± 1.6
308.15 K, x2 = 0.701	1212.9 ± 2	1.4087 ± 0.0004	1560.3 ± 1.6
308.15 K, x2 = 0.8024	1232.4 ± 2	1.4091 ± 0.0004	1573.6 ± 1.6
308.15 K, x2 = 0.8521	1241.7 ± 2	1.4091 ± 0.0004	1579.8 ± 1.6
308.15 K, x2 = 0.9	1250.6 ± 2	1.4089 ± 0.0004	1585.9 ± 1.6
308.15 K, x2 = 0.9502	1260.2 ± 2	1.4085 ± 0.0004	1592.5 ± 1.6
318.15 K, x2 = 0	942.7 ± 2	1.3917 ± 0.0004	1276.4 ± 1.5
318.15 K, x2 = 0.0515	975.9 ± 2	1.3951 ± 0.0004	1312.3 ± 1.6
318.15 K, x2 = 0.102	1004.7 ± 2	1.3977 ± 0.0004	1344.1 ± 1.6
318.15 K, x2 = 0.1502	1030 ± 2	1.3996 ± 0.0004	1371.4 ± 1.6
318.15 K, x2 = 0.21	1058.5 ± 2	1.4013 ± 0.0004	1401.5 ± 1.6
318.15 K, x2 = 0.3051	1097.9 ± 2	1.403 ± 0.0004	1441.5 ± 1.6
318.15 K, x2 = 0.3976	1130.1 ± 2	1.4039 ± 0.0004	1472.5 ± 1.6
318.15 K, x2 = 0.5036	1160.8 ± 2	1.4047 ± 0.0004	1500.1 ± 1.6
318.15 K, x2 = 0.6063	1185.8 ± 2	1.4053 ± 0.0004	1520.6 ± 1.6
318.15 K, x2 = 0.701	1205.8 ± 2	1.406 ± 0.0004	1535.7 ± 1.6
318.15 K, x2 = 0.8024	1225.2 ± 2	1.4064 ± 0.0004	1549.6 ± 1.6
318.15 K, x2 = 0.8521	1234.4 ± 2	1.4065 ± 0.0004	1556.1 ± 1.6
318.15 K, x2 = 0.9	1243.2 ± 2	1.4064 ± 0.0004	1562.4 ± 1.6
318.15 K, x2 = 0.9502	1252.5 ± 2	1.4059 ± 0.0004	1569.2 ± 1.6
328.15 K, x2 = 0	933.4 ± 2	1.3876 ± 0.0004	1241.9 ± 1.5
328.15 K, x2 = 0.0515	966.8 ± 2	1.3914 ± 0.0004	1279.2 ± 1.6
328.15 K, x2 = 0.102	995.8 ± 2	1.3943 ± 0.0004	1312.1 ± 1.6
328.15 K, x2 = 0.1502	1021.3 ± 2	1.3965 ± 0.0004	1340.5 ± 1.6
328.15 K, x2 = 0.21	1050 ± 2	1.3983 ± 0.0004	1371.7 ± 1.6
328.15 K, x2 = 0.3051	1089.6 ± 2	1.4002 ± 0.0004	1413.4 ± 1.6
328.15 K, x2 = 0.3976	1122 ± 2	1.4011 ± 0.0004	1445.7 ± 1.6
328.15 K, x2 = 0.5036	1152.9 ± 2	1.4018 ± 0.0004	1474.5 ± 1.6
328.15 K, x2 = 0.6063	1178 ± 2	1.4024 ± 0.0004	1495.9 ± 1.6
328.15 K, x2 = 0.701	1198.1 ± 2	1.403 ± 0.0004	1511.7 ± 1.6
328.15 K, x2 = 0.8024	1217.6 ± 2	1.4035 ± 0.0004	1526.2 ± 1.6
328.15 K, x2 = 0.8521	1226.8 ± 2	1.4036 ± 0.0004	1532.9 ± 1.6
328.15 K, x2 = 0.9	1235.6 ± 2	1.4035 ± 0.0004	1539.4 ± 1.6
328.15 K, x2 = 0.9502	1245 ± 2	1.4031 ± 0.0004	1546.4 ± 1.6
